# Measurements published in patent US10045983B2, “Heteroaryl pyridone and aza-pyrodine compounds” (Genentech, Inc., priority 2011, dated 2018).
# Where two headings read alike, the source gives them in different places.
# Assay: CD69 Whole Blood Assay (CD69 Hu Blood FACS)
# Type: cell-based, human
# Settings: Lymphocyte, human whole blood, anti-IgM activated B lymphocytes, FACS, IC70
# Procedure, shortened: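 Human whole blood stimulated by crosslinking surface IgM with goat F(ab′)2 anti-human IgM; inhibition of CD69 expression on B lymphocytes measured by flow cytometry.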
# [1] = Table 1, read-out: CD69 Hu Blood FACS IC70
# [2] = Table 2 (unit inferred), read-out: CD69 Hu Blood FACS (IC70)
smiles,measurement,setting,value
"Cn1cc(-c2cncc(-n3ncc4c5c(sc4c3=O)CCCC5)c2CO)cc(Nc2ccc(N3CCN(C4COC4)CC3)cn2)c1=O [Example 116, 4-Hydroxymethyl-3-[1-methyl-5-({5-[4-(oxetan-3-yl)piperazin-1-yl]pyridine-2-yl}amino)-6-oxo-1,6-dihydropyridin-3-yl]-5-{6-oxo-8-thia-4,5-diazatricyclo[7.4.0.0^2,7]trideca-1(9),2(7),3-trien-5-yl}pyridine]",IC70,[1],377 nM
"CN1CCn2nc(Nc3cc(-c4ccnc(N5CCn6c(cc7c6CC(C)(C)C7)C5=O)c4CO)nn(C)c3=O)cc2C1 [Example 297, 3-[3-(hydroxymethyl)-4-[1-methyl-5-[(5-methyl-6,7-dihydro-4H-pyrazolo[1,5-a]pyrazin-2-yl)amino]-6-oxo-pyridazin-3-yl]-2-pyridyl]-7,7-dimethyl-1,2,6,8-tetrahydrocyclopenta[3,4]pyrrolo[3,5-b]pyrazin-4-one]",IC70,[2],140 nM
"Cn1cc(-c2ccnc(N3CCn4c(cc5c4CC(C)(C)C5)C3=O)c2CO)cc(Nc2cc(C(C)(C)C)on2)c1=O [Example 294, 3-[4-[5-[(5-tert-butylisoxazol-3-yl)amino]-1-methyl-6-oxo-3-pyridyl]-3-(hydroxymethyl)-2-pyridyl]-7,7-dimethyl-1,2,6,8-tetrahydrocyclopenta[3,4]pyrrolo[3,5-b]pyrazin-4-one]",IC70,[2],276 nM
"CN1CCN(c2ccc(Nc3cc(-c4cncc(N5CCn6c(cc7c6CCCC7)C5=O)c4CO)cn(C)c3=O)nc2)CC1 [Example 102, 2-(4-(Hydroxymethyl)-5-(1-methyl-5-(5-(4-methylpiperazin-1-yl)pyridin-2-ylamino)-6-oxo-1,6-dihydropyridin-3-yl)pyridin-3-yl)-3,4,6,7,8,9-hexahydropyrazino[1,2-a]indol-1(2H)-one]",IC70,[1],132 nM
"Cn1nc(-c2ccnc(-n3ncc4c5c(sc4c3=O)CCCC5)c2CO)cc(Nc2ccc(C(=O)N3CCOCC3)cn2)c1=O [Example 258, 3-[3-(hydroxymethyl)-4-[1-methyl-5-[[5-(morpholine-4-carbonyl)-2-pyridyl]amino]-6-oxo-pyridazin-3-yl]-2-pyridyl]-6,7,8,9-tetrahydrobenzothiopheno[2,3-d]pyridazin-4-one]",IC70,[2],646 nM
"C[C@H]1CN(C2COC2)CCN1c1ccc(Nc2cc(-c3ccnc(N4CCn5c(cc6c5CCCC6)C4)c3CO)cn(C)c2=O)nc1 [Example 220, 5-[2-(3,4,6,7,8,9-hexahydro-1H-pyrazino[1,2-a]indol-2-yl)-3-(hydroxymethyl)-4-pyridyl]-1-methyl-3-[[5-[(2S)-2-methyl-4-(oxetan-3-yl)piperazin-1-yl]-2-pyridyl]amino]pyridin-2-one]",IC70,[2],1600 nM
"Cn1cc(-c2ccnc(-n3ncc4c5n(cc4c3=O)CCCC5)c2CO)cc(Nc2ccc(N3CCN(C4COC4)CC3)cn2)c1=O [Example 198, 3-[3-(hydroxymethyl)-4-[1-methyl-5-[[5-[4-(oxetan-3-yl)piperazin-1-yl]-2-pyridyl]amino]-6-oxo-3-pyridyl]-2-pyridyl]-7,8,9,10-tetrahydropyridazino[4,5-a]indolizin-4-one]",IC70,[2],6000 nM
"Cn1nc(-c2ccnc(N3CCc4c(sc5c4CC(C)(C)C5)C3=O)c2CO)cc(Nc2cc3n(n2)CC(C)(C)OC3)c1=O [Example 330, 3-[4-[5-[(6,6-dimethyl-4,7-dihydropyrazolo[5,1-c][1,4]oxazin-2-yl)amino]-1-methyl-6-oxo-pyridazin-3-yl]-3-(hydroxymethyl)-2-pyridyl]-7,7-dimethyl-1,2,6,8-tetrahydrocyclopenta[3,4]thieno[1,3-c]pyridin-4-one]",IC70,[2],235 nM
"C[C@@H]1c2cc(Nc3cc(-c4ccnc(N5CCn6c(cc7c6CC(C)(C)C7)C5=O)c4CO)cn(C)c3=O)nn2CCN1C [Example 318, (R)-2-(5-((4,5-dimethyl-4,5,6,7-tetrahydropyrazolo[1,5-a]pyrazin-2-yl)amino)-3′-(hydroxymethyl)-1-methyl-6-oxo-1,6-dihydro-[3,4′-bipyridin]-2′-yl)-7,7-dimethyl-2,3,4,6,7,8-hexahydro-1H-cyclopenta[4,5]pyrrolo[1,2-a]pyrazin-1-one]",IC70,[2],108 nM
"C[C@H]1COC[C@H](C)N1C(=O)c1ccc(Nc2cc(-c3ccnc(N4CCn5c(cc6c5CC(C)(C)C6)C4=O)c3CO)nn(C)c2=O)nc1 [Example 324, 3-[4-[5-[[5-[(3 S,5 S)-3,5-dimethylmorpholine-4-carbonyl]-2-pyridyl]amino]-1-methyl-6-oxo-pyridazin-3-yl]-3-(hydroxymethyl)-2-pyridyl]-7,7-dimethyl-1,2,6,8-tetrahydrocyclopenta[3,4]pyrrolo[3,5-b]pyrazin-4-one]",IC70,[2],85.8 nM
"C[C@H]1CN(C2COC2)CCN1c1cnc(Nc2cc(-c3ccnc(N4CCn5c(cc6c5CC(C)(C)C6)C4=O)c3CO)cn(C)c2=O)cn1 [Example 235, 3-[3-(hydroxymethyl)-4-[1-methyl-5-[[5-[(2S)-2-methyl-4-(oxetan-3-yl)piperazin-1-yl]pyrazin-2-yl]amino]-6-oxo-3-pyridyl]-2-pyridyl]-7,7-dimethyl-1,2,6,8-tetrahydrocyclopenta[3,4]pyrrolo[3,5-b]pyrazin-4-one]",IC70,[2],112 nM
"Cc1cc(Nc2cc(-c3ccnc(N4CCn5c(cc6c5CC(C)(C)C6)C4=O)c3CO)cn(C)c2=O)ns1 [Example 310, 3-[3-(hydroxymethyl)-4-[1-methyl-5-[(5-methylisothiazol-3-yl)amino]-6-oxo-3-pyridyl]-2-pyridyl]-7,7-dimethyl-1,2,6,8-tetrahydrocyclopenta[3,4]pyrrolo[3,5-b]pyrazin-4-one]",IC70,[2],119 nM
C[C@@H]1CN(c2ccc(Nc3cc(-c4cncc(N5CCn6c(cc7c6CCCC7)C5=O)c4CO)cn(C)c3=O)nc2)[C@@H](C)CN1C1COC1 [Example 157],IC70,[1],29.8 nM
"Cc1c2cc(Nc3cc(-c4ccnc(N5CCn6c(cc7c6CC(C)(C)C7)C5=O)c4CO)cn(C)c3=O)ncc2nn1C [Example 326, 3-[4-[5-[(2,3-dimethylpyrazolo[3,4-c]pyridin-5-yl)amino]-1-methyl-6-oxo-3-pyridyl]-3-(hydroxymethyl)-2-pyridyl]-7,7-dimethyl-1,2,6,8-tetrahydrocyclopenta[3,4]pyrrolo[3,5-b]pyrazin-4-one]",IC70,[2],1400 nM
"Cn1cc(-c2ccnc(N3CCn4c(cc5c4CCCC5)C3=O)c2CO)cc(Nc2cc3n(n2)CCN(C2COC2)C3)c1=O [Example 125, 2-(3-(Hydroxymethyl)-4-(1-methyl-5-(5-(oxetan-3-yl)-4,5,6,7-tetrahydropyrazolo[1,5-a]pyrazin-2-ylamino)-6-oxo-1,6-dihydropyridin-3-yl)pyridin-2-yl)-3,4,6,7,8,9-hexahydropyrazino[1,2-a]indol-1(2H)-one]",IC70,[1],87.3 nM
"Cc1cc(Nc2cc(-c3ccnc(-n4ncc5c6c(sc5c4=O)CC(C)(C)C6)c3CO)cn(C)c2=O)nn1C [Example 292, 3-[4-[5-[(1,5-dimethylpyrazol-3-yl)amino]-1-methyl-6-oxo-3-pyridyl]-3-(hydroxymethyl)-2-pyridyl]-7,7-dimethyl-6,8-dihydrocyclopenta[3,4]thieno[1,3-d]pyridazin-4-one]",IC70,[2],118 nM
"Cn1cc(-c2ccnc(-n3ccn4c5c(cc4c3=O)CCCC5)c2CO)cc(Nc2ccc(N3CCN(C4COC4)CC3)cn2)c1=O [Example 121, 2-(3-(hydroxymethyl)-4-(1-methyl-5-(5-(4-(oxetan-3-yl)piperazin-1-yl)pyridine-2-ylamino)-6-oxo-1,6-dihydropyridin-3-yl)pyridin-2-yl)-6,7,8,9-tetrahydropyrazino[1,2-a]indol-1(2H)-one]",IC70,[1],32.3 nM
"Cn1cc(-c2ccnc(N3CCc4c(c(F)c5n4CCCC5)C3=O)c2CO)cc(Nc2cc3n(n2)CCN(C2COC2)C3)c1=O [Example 284, 10-fluoro-2-[3-(hydroxymethyl)-4-[1-methyl-5-[[5-(oxetan-3-yl)-6,7-dihydro-4H-pyrazolo[1,5-a]pyrazin-2-yl]amino]-6-oxo-3-pyridyl]-2-pyridyl]-3,4,6,7,8,9-hexahydropyrido[3,4-b]indolizin-1-one]",IC70,[2],131 nM
"CN1CCn2nc(Nc3cc(-c4ccnc(N5CCn6c(cc7c6CC(C)(C)C7)C5=O)c4CO)cn(C)c3=O)cc2C1 [Example 141, 2-[3′-Hydroxymethyl-1-methyl-5-(5-methyl-4,5,6,7-tetrahydro-pyrazolo[1,5-a]pyrazin-2-ylamino)-6-oxo-1,6-dihydro-[3,4′]bipyridinyl-2′-yl]-7,7-dimethyl-3,4,7,8-tetrahydro-2H,6H-cyclopenta[4,5]pyrrolo[1,2-a]pyrazin-1-one]",IC70,[1],26.6 nM
"CN1CCn2nc(Nc3cc(-c4ccnc(-n5ncc6c(cc7n6CCCC7)c5=O)c4CO)cn(C)c3=O)cc2C1 [Example 204, 2-[3-(hydroxymethyl)-4-[1-methyl-5-[(5-methyl-6,7-dihydro-4H-pyrazolo[1,5-a]pyrazin-2-yl)amino]-6-oxo-3-pyridyl]-2-pyridyl]-6,7,8,9-tetrahydropyridazino[4,5-b]indolizin-1-one]",IC70,[2],436 nM
"CN1CC(c2ccc(Nc3cc(-c4ccnc(N5CCn6c(cc7c6CC(C)(C)C7)C5=O)c4CO)cn(C)c3=O)nc2)C1 [Example 240, 3-[3-(hydroxymethyl)-4-[1-methyl-5-[[5-(1-methylazetidin-3-yl)-2-pyridyl]amino]-6-oxo-3-pyridyl]-2-pyridyl]-7,7-dimethyl-1,2,6,8-tetrahydrocyclopenta[3,4]pyrrolo[3,5-b]pyrazin-4-one]",IC70,[2],22.9 nM
"Cn1cc(-c2ccnc(N3CCn4c(cc5c4CC(C)(C)C5)C3=O)c2CO)cc(Nc2cc(C3COC3)[nH]n2)c1=O [Example 266, 3-[3-(hydroxymethyl)-4-[1-methyl-5-[[5-(oxetan-3-yl)-1H-pyrazol-3-yl]amino]-6-oxo-3-pyridyl]-2-pyridyl]-7,7-dimethyl-1,2,6,8-tetrahydrocyclopenta[3,4]pyrrolo[3,5-b]pyrazin-4-one]",IC70,[2],29.3 nM
"CN1CCc2nc(Nc3cc(-c4ccnc(N5CCn6c7c(c(F)c6C5=O)CCCC7)c4CO)cn(C)c3=O)sc2C1 [Example 223, 10-fluoro-2-[3-(hydroxymethyl)-4-[1-methyl-5-[(5-methyl-6,7-dihydro-4H-thiazolo[5,4-c]pyridin-2-yl)amino]-6-oxo-3-pyridyl]-2-pyridyl]-3,4,6,7,8,9-hexahydropyrazino[1,2-a]indol-1-one]",IC70,[2],430 nM
